According to patent US11214803B2, “Modulators of YAP1 expression” (Ionis Pharmaceuticals, Inc., priority 2019, dated 2022):
Marks after values point to notes of the source that are not given here. Strand notation (5' to 3'): a small letter for the sugar, then the base; units joined by * are phosphorothioate-linked, units joined directly phosphodiester-linked; [ ] holds rarer units or linkages, { } end groups; capitals alone tell only the bases. k = constrained ethyl (cEt); [5mC] = 5-methylcytosine; d = 2'-deoxy (DNA)

tested on: Yap1 mRNA; assay: Antisense inhibition of human Yap1 in A-431 cells by cEt gapmers, single dose (Example 3, RTS36584); type: cell-based; conditions: Table 8; A-431 cells, 5,000 cells per well, free uptake, 2,000 nM, approximately 48 hours; RTS36584; normalized to RIBOGREEN; Yap1 mRNA relative to untreated control cells
Description: Modified oligonucleotides were designed to target a Yap1 nucleic acid and were tested for their effect on Yap1 mRNA level in vitro. The modified oligonucleotides were tested in a series of experiments that had similar culture conditions. Cultured A-431 cells at a density of 5,000 cells per well were treated using free uptake with 2,000 nM of modified oligonucleotide. After a treatment period of approximately 48 hours, RNA was isolated from the cells and Yap1 mRNA levels were measured by quantitative real-time RTPCR. Human primer probe set RTS36584 (forward sequence […], designated herein as SEQ ID NO.: 14; reverse sequence […], designated herein as SEQ ID NO.: 15; probe sequence […], designated herein as SEQ ID NO.: 16) was used to measure mRNA levels. Yap1 mRNA levels were normalized to total RNA content, as measured by RIBOGREEN®. Results are presented in the tables below as percent control of the amount of Yap1 mRNA relative to untreated control cells (% UTC). The modified oligonucleotides with percent control values marked with an asterisk (*) target the amplicon region of the primer probe set. Additional assays may be used to measure the potency and efficacy of the modified oligonucleotides targeting the amplicon region.
The newly designed modified oligonucleotides in the Tables below were designed as 3-10-3 cEt gapmers. The gapmers are 16 nucleosides in length, wherein the central gap segment comprises of ten 2′-deoxynucleosides and is flanked by wing segments on the 5′ direction and the 3′ direction comprising three nucleosides each. Each nucleoside in the 5′ wing segment and each nucleoside in the 3′ wing segment has a cEt sugar modification. The internucleoside linkages throughout each gapmer are phosphorothioate (P═S) linkages. All cytosine residues throughout each gapmer are 5-methylcytosines.
“Start site” indicates the 5′-most nucleoside to which the gapmer is targeted in the human gene sequence. “Stop site” indicates the 3′-most nucleoside to which the gapmer is targeted human gene sequence. […] Activity of the modified oligonucleotide may be defined in a different experiment.

Row | Substance | YAP1 (% UTC)
1 | 958391 (antisense kA*kG*k[5mC]*dG*dA*dA*dG*dG*dT*dG*d[5mC]*dG*dG*kA*kG*k[5mC]) [Compound 958391] | 102
2 | 958405 (antisense kT*kT*kA*dT*dG*dG*dG*dA*dT*dG*dA*dG*dT*kG*k[5mC]*kT) [Compound 958405] | 24
3 | 958349 (k[5mC]*k[5mC]*kG*dA*dG*dT*d[5mC]*d[5mC]*d[5mC]*d[5mC]*dG*d[5mC]*dG*kG*kA*k[5mC]; antisense) [Compound 958349] | 81
4 | 958373 (antisense kA*kG*kG*dT*dG*d[5mC]*dT*dA*dG*d[5mC]*dT*dG*dG*kT*kG*k[5mC]) [Compound 958373] | 8
5 | 958378 (antisense k[5mC]*kA*kT*d[5mC]*dA*dG*dT*dA*d[5mC]*dT*dG*dG*d[5mC]*k[5mC]*kT*kA) [Compound 958378] | 25

same assay, conditions: Table 9; A-431 cells, 5,000 cells per well, free uptake, 2,000 nM, approximately 48 hours; RTS36584; normalized to RIBOGREEN; Yap1 mRNA relative to untreated control cells

Row | Substance | YAP1 (% UTC)
6 | 958576 (kG*kT*kG*dG*d[5mC]*dT*dA*d[5mC]*dT*dG*dG*d[5mC]*dA*kA*kA*kT; antisense) [Compound 958576] | 53
7 | 958746 (antisense kG*kT*kT*dA*dT*d[5mC]*d[5mC]*dT*d[5mC]*dT*dA*dT*dA*kG*kT*k[5mC]) [Compound 958746] | 22
8 | 958476 (antisense kT*kT*k[5mC]*d[5mC]*dG*dG*dT*dG*d[5mC]*dA*dT*dG*dT*kG*kT*k[5mC]) [Compound 958476] | 2
9 | 958531 (kG*kT*kA*dG*dG*dA*dG*d[5mC]*dA*dA*dG*dT*d[5mC]*kT*kT*kG; antisense) [Compound 958531] | 5

same assay, conditions: Table 10; A-431 cells, 5,000 cells per well, free uptake, 2,000 nM oligonucleotide, approx. 48 hours; primer probe set RTS36584; Yap1 mRNA normalized to RIBOGREEN, percent of untreated control

Row | Substance | YAP1 (% UTC)
10 | 958482 (antisense kT*k[5mC]*kT*dG*dT*dA*dT*dT*dA*dG*d[5mC]*d[5mC]*dT*kG*kA*kA) [Compound 958482] | 10
11 | 958727 (antisense kA*kT*k[5mC]*dT*dG*dT*d[5mC]*dA*dG*dT*dT*dA*dT*k[5mC]*k[5mC]*kT) [Compound 958727] | 2
12 | 958572 (kA*kT*kT*dA*dT*dA*dG*dG*d[5mC]*dA*d[5mC]*dT*d[5mC]*k[5mC]*kT*kT; antisense) [Compound 958572] | 5
13 | 958632 (antisense k[5mC]*kT*k[5mC]*d[5mC]*dG*dA*d[5mC]*dA*dG*dG*dA*dG*dA*k[5mC]*kT*kA) [Compound 958632] | 55

same assay, conditions: Table 11; A-431 cells, 5,000 cells per well, free uptake, 2,000 nM oligonucleotide, approx. 48 hours; primer probe set RTS36584; Yap1 mRNA normalized to RIBOGREEN, percent of untreated control

Row | Substance | YAP1 (% UTC)
14 | 958493 (kA*kA*kA*d[5mC]*dA*dG*dT*d[5mC]*dT*dT*d[5mC]*dA*dG*k[5mC]*k[5mC]*kT; antisense) [Compound 958493] | 16
15 | 958728 (antisense kT*kA*kT*d[5mC]*dT*dG*dT*d[5mC]*dA*dG*dT*dT*dA*kT*k[5mC]*k[5mC]) [Compound 958728] | 10
16 | 958713 (antisense kT*kG*k[5mC]*dT*dA*dG*dA*dG*dG*d[5mC]*dT*dG*dT*kT*k[5mC]*k[5mC]) [Compound 958713] | 55
17 | 958598 (k[5mC]*k[5mC]*k[5mC]*dA*dA*dT*dG*d[5mC]*dT*dA*d[5mC]*d[5mC]*d[5mC]*kA*kA*kT; antisense) [Compound 958598] | 4
18 | 958738 (antisense kT*k[5mC]*kT*dA*dT*dA*dT*dG*dT*dT*dT*d[5mC]*d[5mC]*k[5mC]*k[5mC]*k[5mC]) [Compound 958738] | 11
19 | 958508 (kG*kA*kG*dA*dG*d[5mC]*dA*dG*dA*dT*dA*dA*dT*k[5mC]*kG*kA; antisense) [Compound 958508] | 7

same assay, conditions: Table 12; A-431 cells, 5,000 cells per well, free uptake, 2,000 nM modified oligonucleotide, approx. 48 hours; RTS36584; normalized to RIBOGREEN; Yap1 mRNA relative to untreated control cells

Row | Substance | YAP1 (% UTC)
20 | 958524 (kG*k[5mC]*kA*d[5mC]*dA*dT*dT*dA*dT*dG*dA*dA*d[5mC]*k[5mC]*kT*kA; antisense) [Compound 958524] | 13 % UTC
21 | 958464 (antisense kG*k[5mC]*kT*d[5mC]*dA*dT*dG*d[5mC]*dT*dT*dA*dG*dT*k[5mC]*k[5mC]*kA) [Compound 958464] | 3* % UTC
22 | 958504 (kA*kT*k[5mC]*dG*dA*dG*dA*dT*dT*dT*dA*dA*dA*kT*kA*kA; antisense) [Compound 958504] | 63 % UTC
23 | 958469 (antisense kG*kG*k[5mC]*dT*d[5mC]*dT*dA*dT*dA*dA*d[5mC]*d[5mC]*dA*kT*kG*kT) [Compound 958469] | 17 % UTC

same assay, conditions: Table 13; A-431 cells, 5,000 cells per well, free uptake, 2,000 nM modified oligonucleotide, approx. 48 hours; RTS36584; normalized to RIBOGREEN; Yap1 mRNA relative to untreated control cells

Row | Substance | YAP1 (% UTC)
24 | 958795 (antisense kT*kA*kT*dT*d[5mC]*d[5mC]*dG*d[5mC]*dA*dT*dT*dG*d[5mC]*k[5mC]*kT*kA) [Compound 958795] | 8
25 | 958485 (kA*kG*kA*dG*dG*dT*d[5mC]*dA*dG*d[5mC]*dA*dA*dT*kA*k[5mC]*kA; antisense) [Compound 958485] | 3
26 | 958705 (antisense kG*kG*k[5mC]*d[5mC]*dA*dT*d[5mC]*dA*dA*dT*dA*dA*dA*kG*kA*k[5mC]) [Compound 958705] | 112
27 | 958635 (antisense kG*kT*kT*dT*dA*dG*dG*d[5mC]*dA*dA*dG*d[5mC]*dA*kG*k[5mC]*kT) [Compound 958635] | 43
28 | 958565 (kT*kT*kG*dA*dG*d[5mC]*dA*d[5mC]*dT*dG*dA*dA*dA*kG*kT*kA; antisense) [Compound 958565] | 4
29 | 958725 (antisense kG*kT*k[5mC]*dA*dG*dT*dT*dA*dT*d[5mC]*d[5mC]*dT*dA*kT*k[5mC]*k[5mC]) [Compound 958725] | 1

same assay, conditions: Table 26; Yap1 mRNA by 3-10-3 cEt gapmers targeting SEQ ID NO.: 1, and 2; percent of untreated control

Row | Substance | YAP1 (% UTC)
30 | 1076300 (kA*kA*kA*dA*dA*dA*dT*dG*dG*d[5mC]*dT*dT*d[5mC]*kA*k[5mC]*kG; antisense) [compound 1076300] | 22
31 | 1076172 (kT*kA*kT*dT*dA*dG*dT*dA*dA*dA*dG*dA*dG*kT*kA*k[5mC]; antisense) [compound 1076172] | 98
32 | 1074892 (k[5mC]*kT*kG*dA*dA*dG*dT*dT*dT*dA*dG*d[5mC]*d[5mC]*kT*kG*kA; antisense) [compound 1074892] | 42
33 | 1074764 (kA*kT*kG*d[5mC]*dT*dA*d[5mC]*d[5mC]*d[5mC]*dA*dA*dT*dA*k[5mC]*kA*kA; antisense) [compound 1074764] | 18

same assay, conditions: Table 27; Yap1 mRNA by 3-10-3 cEt gapmers targeting SEQ ID NO.: 1, and 2; percent of untreated control

Row | Substance | YAP1 (% UTC)
34 | 1075341 (antisense kG*k[5mC]*kT*dG*dA*dA*d[5mC]*dA*dA*dT*d[5mC]*dT*d[5mC]*k[5mC]*k[5mC]*kG) [compound 1075341] | 31
35 | 1074253 (antisense kT*k[5mC]*kT*dG*dG*dG*dA*d[5mC]*dA*dG*d[5mC]*dA*dT*kG*kG*k[5mC]) [compound 1074253] | 11
36 | 1074125 (kG*k[5mC]*kG*dG*d[5mC]*dT*dG*d[5mC]*dG*d[5mC]*d[5mC]*dT*d[5mC]*kG*kG*kG; antisense) [compound 1074125] | 94

same assay, conditions: Table 29; Yap1 mRNA as percent of untreated control; 3-10-3 cEt gapmers targeting SEQ ID NO.: 1, and 2

Row | Substance | YAP1 (% UTC)
37 | 1076303 (k[5mC]*kT*kA*dA*dT*dA*dA*dG*d[5mC]*d[5mC]*dT*d[5mC]*dA*k[5mC]*k[5mC]*kT; antisense) [compound 1076303] | 34
38 | 1074927 (antisense kT*kA*k[5mC]*dA*dA*d[5mC]*dA*dG*dG*d[5mC]*d[5mC]*dT*dG*k[5mC]*kA*kA) [compound 1074927] | 74

same assay, conditions: Table 34; Yap1 mRNA as percent of untreated control; 3-10-3 cEt gapmers targeting SEQ ID NO: 1 and 2; single dose

Row | Substance | YAP1 (% UTC)
39 | 1074292 (antisense k[5mC]*kT*kG*dT*dT*dT*d[5mC]*dA*d[5mC]*dT*dG*dG*dA*kG*k[5mC]*kA) [compound 1074292] | 10
40 | 1076436 (k[5mC]*kA*kT*dT*dA*d[5mC]*dT*dA*d[5mC]*dT*d[5mC]*dT*dG*kT*k[5mC]*k[5mC]; antisense) [compound 1076436] | 39
41 | 1075316 (antisense kG*kT*kA*dT*dA*dT*dA*dG*dA*dT*dA*d[5mC]*d[5mC]*k[5mC]*kA*k[5mC]) [compound 1075316] | 25
